This note sets out measurements from US7495008B2, “Spiro-piperidine derivatives” (Hoffmann-La Roche Inc., priority 2006, dated 2009).

For this assay, the target named is T1, human V1a receptor (Homo sapiens, UniProt P37288).
T1 construct: expressed in transfected cells; host or cells: HEK293 cells, transiently transfected; membranes prepared
T1 sequence (P37288 whole entry): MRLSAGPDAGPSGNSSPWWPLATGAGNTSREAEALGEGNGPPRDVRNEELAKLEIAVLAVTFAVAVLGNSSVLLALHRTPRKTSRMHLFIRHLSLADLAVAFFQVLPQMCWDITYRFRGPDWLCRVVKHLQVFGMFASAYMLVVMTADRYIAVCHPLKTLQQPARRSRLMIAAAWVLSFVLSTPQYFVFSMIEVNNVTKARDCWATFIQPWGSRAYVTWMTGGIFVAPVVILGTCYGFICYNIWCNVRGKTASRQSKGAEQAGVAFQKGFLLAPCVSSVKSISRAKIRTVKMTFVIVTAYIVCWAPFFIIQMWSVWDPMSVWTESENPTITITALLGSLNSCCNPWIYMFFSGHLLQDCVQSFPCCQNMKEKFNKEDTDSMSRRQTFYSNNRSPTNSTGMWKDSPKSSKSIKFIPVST
The assay is described as follows: V1a receptor binding study (3H-Vasopressin SPA, HEK293 membranes). To be noted: membranes of HEK293 cells transiently transfected with human V1a receptor, Ki by Cheng-Prussoff equation, read-out: pKi hV1a (converted). On the procedure:
The human V1a receptor was cloned by RT-PCR from total human liver RNA. The coding sequence was subcloned in an expression vector after sequencing to confirm the identity of the amplified sequence. […] Cell membranes were prepared from HEK293 cells transiently transfected with the expression vector and grown in 20 liter fermenters with the following protocol.
50 g of cells were resuspended in 30 ml freshly prepared ice cold Lysis buffer (50 mM HEPES, 1 mM EDTA, 10 mM MgCl2 adjusted to pH=7.4+complete cocktail of protease inhibitor (Roche Diagnostics)); homogenized with Polytron for 1 min; and sonicated on ice for 2×2 minutes at 80% intensity (Vibracell sonicator). The preparation was centrifuged 20 min at 500 g at 4° C., the pellet was discarded and the supernatant centrifuged 1 hour at 43,000 g at 4° C. (19,000 rpm). The pellet was resuspended in 12.5 ml Lysis buffer+12.5 ml Sucrose 20% and homogenized using a Polytron for 1-2 min. The protein concentration was determined by the Bradford method and aliquots were stored at −80° C. until use. For binding studies 60 mg Yttrium silicate SPA beads (Amersham) were mixed with an aliquot of membrane in binding buffer (50 mM Tris, 120 mM NaCl, 5 mM KCl, 2 mM CaCl2, 10 mM MgCl2) for 15 minutes with mixing. 50 ul of bead/membrane mixture was then added to each well of a 96 well plate, followed by 50 ul of 4 nM 3H-Vasopressin (American Radiolabeled Chemicals). For total binding measurement 100 ul of binding buffer were added to the respective wells, for non-specific binding 100 ul of 8.4 mM cold vasopressin and for compound testing 100 ul of a serial dilution of each compound in 2% DMSO. The plate was incubated 1 h at room temperature, centrifuged 1 min at 1000 g and counted on a Packard Top-Count. Non-specific binding counts were subtracted from each well and data was normalized to the maximum specific binding set at 100%. To calculate an IC 50 the curve was fitted using a non-linear regression model (XLfit), and the Ki was calculated using the Cheng-Prussoff equation.
Turning to `CC1=C(C(=O)N2CC[C@@]3(OC(=O)c4ccccc43)[C@@H](C)C2)Cc2ccccc21` (racemic) [Example 10, (1RS,3′SR)-3′-Methyl-1′-[(3-methyl-1H-inden-2-yl)carbonyl]-3H-spiro[2-benzofuran-1,4′-piperidin]-3-one], the Ki is 63.1 nM.

In the case of `O=C(c1cc2ccccc2s1)N1CCC2(CC1)OCc1ccccc12` [Example 1, 1′-(1-Benzothien-2-ylcarbonyl)-3H-spiro[2-benzofuran-1,4′-piperidine]], the Ki is 25.1 nM.

On to `COc1cccc2cc(C(=O)N3CCC4(CC3)OCc3ccccc34)sc12` [Example 2, 1′-[(7-Methoxy-1-benzothien-2-yl)carbonyl]-3H-spiro[2-benzofuran-1,4′-piperidine]], for which the Ki is 50.1 nM.

As for `COc1ccc2c(c1)CC(C(=O)N1CCC3(CC1)OCc1ccccc13)S2` (stereo not shown) [Example 4, 1′-[(5-Methoxy-2,3-dihydro-1-benzothien-2-yl)carbonyl]-3H-spiro[2-benzofuran-1,4′-piperidine]], the Ki is 63.1 nM.

With `CCc1cc(Br)cc2cc(C(=O)N3CCC4(CC3)OCc3ccccc34)oc12` [Example 6, 1′-[(5-Bromo-7-ethyl-1-benzofuran-2-yl)carbonyl]-3H-spiro[2-benzofuran-1,4′-piperidine]], the Ki was 50.1 nM.

Consider `O=C(c1nc2cc(Cl)ccc2[nH]1)N1CCC2(CC1)OCc1ccccc12` [Example 9, 1′-[(5-Chloro-1H-benzimidazol-2-yl)carbonyl]-3H-spiro[2-benzofuran-1,4′-piperidine]], for which the Ki is 31.6 nM.

On to `COc1ccc2c(c1)C1(CCN(C(=O)c3cc4cccnc4[nH]3)CC1)OC2=O` [Example 14, 6-Methoxy-1′-(1H-pyrrolo[2,3-b]pyridin-2-ylcarbonyl)-3H-spiro[2-benzofuran-1,4′-piperidin]-3-one], for which the Ki is 200 nM.
